# Test results: paper PMC12591170, “Glabridin‐Gold(I) Complex as a Novel Immunomodulatory Agent Targeting TrxR and MAPK Pathways for Synergistic Enhancement of Antitumor Immunity” (Advanced Science, 2025)
# Experiments:
# [1] = Solubility by UV absorbance; format: physicochemical; conditions: PBS: DMF = 200:1, 298K
# Method: Weigh a certain amount of 6d, dissolve it in a PBS: DMF = 200:1 solution, and mix to obtain the high‐concentration solution. Then dilute the original solution to prepare solutions of different concentrations. The ultraviolet absorbance values at the maximum absorption wavelength (237 nm) were measured in sequence, and the standard curve was plotted (Figure S40, Supporting Information). Prepare the saturated 6d solution by the same method. After centrifugation, take the supernatant and dilute it 7 times.
# HepG2 cells = test: ROS levels assay (DHE, DCFH-DA); format: cell-based, human; conditions: HepG2, 6 h, DHE and DCFH-DA probes
# Method: HepG2 cells were seeded in 12‐well plate (5 × 10^4 cells per well). 4 mM N‐acetylcysteine (NAC) was applied for 1 h pretreatment. DMF (0.1%), AF (4 µM) or different concentrations of 6d (2, 4, 8 µM) were added in the wells for 6 h incubation. 10 µM DHE or DCFH‐DA (dissolved in DMEM) probes were applied for 30 min staining. The cells were photographed by the fluorescence microscopy after washing twice.
# immature DCs = test: DC maturation assay with medium of treated Hepa1-6 cells; format: cell-based, C57BL/6 mouse; conditions: 24 h
# Method: The monocytes were extracted from the leg bone marrow of a C57BL/6 mouse and incubated in the 1640 complete medium with rmGM‐CSF (20 ng mL^−1) and IL‐4 (20 ng mL^−1). The medium was replaced partially every other day, and immature DCs were differentiated after 7 days. […] The medium from treated Hepa1‐6 cells was collected and coincubated with the differentiated DCs for 24 h. After cells collection, the coincubated DCs were labeled with CD11c antibody, CD80 antibody and CD86 antibody. Then, the DC maturation ratio was analyzed by a flow cytometer.
# [2] = system: MAPK pathway (phosphorylated MEK1/2 and ERK1/2); test: Western blot of MAPK pathway in HepG2; format: cell-based, human; conditions: HepG2, 24 h
# Method: (§1) HepG2 cells were incubated in 6 cm culture dishes and treated with different complexes. The treated cells were lysed with lysis buffer (RIPA:PMSF:phosphatase inhibitor:protease inhibitor = 100:1:1:1). The lysed cells were further broken by sonication, and proteins were isolated by centrifugation. The protein concentrations were detected by BCA assay. 10% SDS PAGE gel was usually applied to separate the different kDa of proteins, and more than 200 kDa of proteins were separated using 8% SDS PAGE gel. After seperation, proteins were transferred onto polyvinylidene difluoride (PVDF) membranes. The target proteins were labeled by various specific primary antibodies at 4 °C overnight. Then, the membranes were treated with anti‐rabbit or anti‐mouse secondary antibody for 2 h. Tris buffered saline with tween 20 (TBST) was applied to wash the membranes after each operation above. The target proteins’ bands were detected by the enhanced chemiluminescence (ECL) procedure.
# HIF-1α = test: Western blot of HIF-1α in HepG2; format: cell-based, human; conditions: HepG2, 24 h
# Method: as §1
# [3] = system: immune cells in Hepa1-6 tumor and spleen tissue; test: In vivo immune cell and marker analysis (flow cytometry, immunofluorescence, immunohistochemistry); set-up: species or system C57BL/6 mice
# Method: All mice were 6–8 weeks old males and procured from Hangzhou Medical College, located in Hangzhou, China. […] 2 × 10^6 Hepa1‐6 cells in 100 µL DMEM were subcutaneously seeded in underarms of C57BL/6 mice. […] Meanwhile, the mice weights and tumor volume were recorded, and the calculation formula of tumor volume was Volume = Width^2 × Length/2. After 13 days, all mice were sacrificed for collection of tumors, hearts, livers, spleens, lungs and kidneys. Collagenase IV (1 mg mL^−1) and DNase I (1 µg mL^−1) were applied to digest a part of the tumor tissue into cell suspension, and lysis buffer was used to remove red blood cells. The prepared cells above were stained with antibodies (anti‐CD3e‐FITC, and anti‐CD8a‐PE; anti‐CD11c‐APC, anti‐CD80‐PE, and anti‐CD86‐FITC; anti‐CD45‐Percp, anti‐CD11b‐APC, and anti‐Ly‐6G/Ly‐6C(Gr‐1)‐FITC; anti‐CD11b‐APC, anti‐CD206‐PE, and CD86‐FITC). CD3^+CD8^+ T cells, CD80^+CD86^+ DCs, CD11b^+Gr‐1^+ MDSCs, CD206^−CD86^+ M1‐type macrophages and CD206^+CD86^− M2‐type macrophages were analyzed by flow cytometry. Then, another part of tumor tissues were fixed with 4% paraformaldehyde, embedded in paraffin, cut into slices and stained with antibodies for immunofluorescence and immunohistochemistry analysis.
# [4] = mouse
# [5] = flow cytometry and immunofluorescence
smiles,measurement,setting,value
CCn1ccn(CCCCCOc2ccc([C@@H]3COc4c(ccc5c4C=CC(C)(C)O5)C3)c(OCCCCCn3ccn(CC)[c]3=[Au][Br])c2)[c]1=[Au][Br] [6d],solubility,[1],108 µg/mL
same,ROS level,HepG2 cells,elevated ROS level
same,DC maturation,immature DCs,significantly induced DC maturation
same,"ERK1/2 phosphorylation (western blot, Figure S49)",[2],downregulated ERK1/2 phosphorylation
same,phosphorylation of MEK1/2 and ERK1/2 (western blot),[2],significantly inhibited
same,HIF-1α expression (western blot),HIF-1α,significantly inhibited
same,DC maturation in spleen and tumor tissues,[3]; [5],induced DC maturation
same,macrophage polarization in tumor,[3]; [5],significantly promoted M1‐type macrophage polarization
same,T lymphocyte infiltration in tumor,[3]; flow cytometry and immunohistochemistry,promoted T lymphocyte infiltration
same,Arg-1 expression in tumor tissue,[3]; immunofluorescence,downregulation
same,CRT exposure in tumor tissue,[3]; immunofluorescence,promoted CRT exposure
same,GzmB expression in tumor tissue,"[3]; immunofluorescence, OXA vs model group, 6d vs OXA group",significantly upregulated GzmB expression
same,MDSC infiltration in tumor,"[3]; vs model group, 13 days",reducing the infiltration
same,Treg infiltration in tumor (Foxp3),"[3]; vs model group, 13 days",reducing the infiltration
same,metabolic stability in whole blood,[4]; 2 h,high metabolic stability
same,T1/2,[4]; blood,∞
same,"Percent Remaining (%) (Mean, n=2) 0 min","[4]; blood, 0 h",100%
same,"Percent Remaining (%) (Mean, n=2) 5 min","[4]; blood, 5 min",98.8%
same,"Percent Remaining (%) (Mean, n=2) 15 min","[4]; blood, 0.25 h",107%
same,"Percent Remaining (%) (Mean, n=2) 30 min","[4]; blood, 0.5 h",103%
same,"Percent Remaining (%) (Mean, n=2) 60 min","[4]; blood, 1 h",103%
same,"Percent Remaining (%) (Mean, n=2) 120 min","[4]; blood, 2 h",108%
